Patent US10173991B2, “Sulfone amide linked benzothiazole inhibitors of endothelial lipase” (BRISTOL-MYERS SQUIBB COMPANY, priority 2014, dated 2019)

Target: Endothelial lipase (EL) (Homo sapiens (Human), UniProt Q9Y5X9)
Assay: Endothelial lipase (EL) enzymatic assay with fluorescent substrate A10070 in DMPG vesicles
Assay type: biochemical
Summary of the method: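 Compounds were preincubated with enzyme for 30 min at 37° C before FRET-substrate vesicles (A10070 in DMPG, 0.11 mole fraction) were added. Reaction rates were obtained from the 300–900 sec slope of fluorescence at 490/530 nm.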

Sequence of Endothelial lipase (EL) (Q9Y5X9 21-500): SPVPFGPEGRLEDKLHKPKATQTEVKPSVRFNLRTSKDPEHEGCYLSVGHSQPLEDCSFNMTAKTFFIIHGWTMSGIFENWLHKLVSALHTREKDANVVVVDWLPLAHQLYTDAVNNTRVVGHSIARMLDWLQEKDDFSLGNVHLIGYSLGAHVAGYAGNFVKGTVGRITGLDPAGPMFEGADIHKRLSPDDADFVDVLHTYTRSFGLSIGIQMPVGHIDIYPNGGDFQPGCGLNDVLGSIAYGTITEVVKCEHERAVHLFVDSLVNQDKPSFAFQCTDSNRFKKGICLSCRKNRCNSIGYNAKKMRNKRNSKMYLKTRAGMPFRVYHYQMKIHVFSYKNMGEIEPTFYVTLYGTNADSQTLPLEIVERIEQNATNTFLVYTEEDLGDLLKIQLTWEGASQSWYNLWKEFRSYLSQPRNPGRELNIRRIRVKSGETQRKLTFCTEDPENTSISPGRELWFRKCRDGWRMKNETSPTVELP

Structure (SMILES)	IC50 [nM]
COCCS(=O)(=O)C(C(=O)NCC(=O)NC1CC1)c1nc2ccc(-c3ccc(C(=O)NCC(F)(F)F)cc3)cc2s1 (stereo not shown) [Example 97, 4-[2-({[(cyclopropyl-carbamoyl)methyl]carbamoyl}(2-methoxyethane-sulfonyl)methyl)-1,3-benzothiazol-6-yl]-N-(2,2,2-trifluoroethyl) benzamide]	4
COCCS(=O)(=O)C(C(=O)NCC(=O)NC1CC1)c1nc2ccc(-c3ccc(NC(C)=O)cc3)cc2s1 (stereo not shown) [Example 98, N-[(cyclopropyl-carbamoyl)methyl]-2-[6-(4-acetamidophenyl)-1,3-benzothiazol-2-yl]-2-(2-methoxyethane-sulfonyl) acetamide]	8
COCCNC(=O)c1ccc(-c2cc3sc(C(C(=O)NCC(=O)NC4CC4)S(=O)(=O)CCOC)nc3cc2Cl)cc1 (stereo not shown) [Example 99, 4-[5-chloro-2-({[(cyclopropyl-carbamoyl)methyl]carbamoyl}(2-methoxyethane-sulfonyl)methyl)-1,3-benzothiazol-6-yl]-N-(2-methoxyethyl) benzamide]	8
COCCS(=O)(=O)C(C(=O)NCC(=O)NC1CC1)c1nc2ccc(-c3ccc(NC(=O)OC)cc3)cc2s1 (stereo not shown) [Example 100, methyl N-{4-[2-({[(cyclopropyl-carbamoyl)methyl]carbamoyl}(2-methoxyethane-sulfonyl)methyl)-1,3-benzothiazol-6-yl]phenyl} carbamate]	8
COCCS(=O)(=O)C(C(=O)NCC(=O)NC1CC1)c1nc2ccc(-c3ccc(-c4nnc(C)o4)cc3)cc2s1 (stereo not shown) [Example 101, N-[(cyclopropyl-carbamoyl)methyl]-2-(2-methoxyethane-sulfonyl)-2-{6-[4-(5-methyl-1,3,4-oxadiazol-2-yl)phenyl]-1,3-benzothiazol-2-yl} acetamide]	9
CC(=O)Nc1ccc(-c2ccc3nc(C(C(=O)NCC(=O)NC4CC4)S(C)(=O)=O)sc3c2)cc1 (stereo not shown) [Example 102, N-[(cyclopropyl-carbamoyl)methyl]-2-[6-(4-acetamidophenyl)-1,3-benzothiazol-2-yl]-2-methanesulfonyl-acetamide]	14
CS(=O)(=O)C(C(=O)NCC(=O)NC1CC1)c1nc2ccc(-c3ccc(C(=O)NCC(F)(F)F)cc3)cc2s1 (stereo not shown) [Example 103, 4-[2-({[(cyclopropyl-carbamoyl)methyl]carbamoyl} (methanesulfonyl)methyl)-1,3-benzothiazol-6-yl]-N-(2,2,2-trifluoroethyl) benzamide]	20
COCCS(=O)(=O)C(C(=O)NCC(=O)NC1CC1)c1nc2cc(-c3ccc(NC(=O)OC)cc3)ccc2s1 (stereo not shown) [Example 104, methyl N-{4-[2-({[(cyclopropyl-carbamoyl)methyl]carbamoyl}(2-methoxyethane-sulfonyl)methyl)-1,3-benzothiazol-5-yl]phenyl} carbamate]	28
COCCS(=O)(=O)C(C(=O)NCC(=O)NC1CC1)c1nc2cc(Cl)c(-c3ccc(F)nc3)cc2s1 (stereo not shown) [Example 105, 2-[5-chloro-6-(6-fluoropyridin-3-yl)-1,3-benzothiazol-2-yl]-N-[(cyclopropyl-carbamoyl)methyl]-2-(2-methoxyethane-sulfonyl)acetamide]	28
COCCS(=O)(=O)C(C(=O)NCC(=O)NC1CC1)c1nc2cc(-c3ccc(NC(C)=O)cc3)ccc2s1 (stereo not shown) [Example 106, N-[(cyclopropyl-carbamoyl)methyl]-2-[5-(4-acetamidophenyl)-1,3-benzothiazol-2-yl]-2-(2-methoxyethane-sulfonyl)acetamide]	30
COCCS(=O)(=O)C(C(=O)NCC(=O)NC1CC1)c1nc2cc(Cl)c(-c3ccnn3C)cc2s1 (stereo not shown) [Example 107]	34
COCCS(=O)(=O)C(C(=O)NCC(=O)NC1CC1)c1nc2cc(Cl)c(-c3ccn(C)c(=O)c3)cc2s1 (stereo not shown) [Example 108, 2-[5-chloro-6-(1-methyl-2-oxo-1,2-dihydropyridin-4-yl)-1,3-benzothiazol-2-yl]-N-[(cyclopropyl-carbamoyl)methyl]-2-(2-methoxyethane-sulfonyl)acetamide]	51
CC(C)(O)Cn1cc(-c2ccc3nc(C(C(=O)NCC(=O)NC4CC4)S(C)(=O)=O)sc3c2)cn1 (stereo not shown) [Example 109, N-[(cyclopropyl-carbamoyl)methyl]-2-{6-[1-(2-hydroxy-2-methylpropyl)-1H-pyrazol-4-yl]-1,3-benzothiazol-2-yl}-2-methanesulfonyl-acetamide]	14
COCCS(=O)(=O)C(C(=O)NCC(=O)NC1CC1)c1nc2ccc(-c3cnn(CC(C)(C)O)c3)cc2s1 (stereo not shown) [Example 110, N-[(cyclopropyl-carbamoyl)methyl]-2-{6-[1-(2-hydroxy-2-methylpropyl)-1H-pyrazol-4-yl]-1,3-enzothiazol-2-yl}-2-(2-methoxyethane-sulfonyl) acetamide]	31
CC(=O)Nc1cccc(-c2ccc3nc(C(C(=O)NCC(=O)NC4CC4)S(C)(=O)=O)sc3c2)c1 (stereo not shown) [Example 111, N-[(cyclopropyl-carbamoyl)methyl]-2-[6-(3-acetamidophenyl)-1,3-benzothiazol-2-yl]-2-methanesulfonyl-acetamide]	23
COCCS(=O)(=O)C(C(=O)NCC(=O)NC1CC1)c1nc2cc(Cl)c(-c3cncnc3)cc2s1 (stereo not shown) [Example 112, 2-[5-chloro-6-(pyrimidin-5-yl)-1,3-benzothiazol-2-yl]-N-[(cyclopropyl-carbamoyl)methyl]-2-(2-methoxyethane-sulfonyl)acetamide]	97
CC(=O)Nc1ccc(-c2cc3nc(C(C(=O)NCC(=O)NC4CC4)S(C)(=O)=O)sc3cc2F)cc1 (stereo not shown) [Example 113, N-[(cyclopropyl-carbamoyl)methyl]-2-[5-(4-acetamidophenyl)-6-fluoro-1,3-benzothiazol-2-yl]-2-methanesulfonyl-acetamide]	9
COC(=O)Nc1ccc(-c2cc3nc(C(C(=O)NCC(=O)NC4CC4)S(C)(=O)=O)sc3cc2F)cc1 (stereo not shown) [Example 114, methyl N-{4-[2-({[(cyclopropyl-carbamoyl)methyl]caramoyl} (methanesulfonyl)methyl)-6-fluoro-1,3-benzothiazol-5-yl]phenyl} carbamate]	4
CC(=O)Nc1cccc(-c2cc3nc(C(C(=O)NCC(=O)NC4CC4)S(C)(=O)=O)sc3cc2F)c1 (stereo not shown) [Example 115, N-[(cyclopropyl-carbamoyl)methyl]-2-[5-(3-acetamidophenyl)-6-fluoro-1,3-benzothiazol-2-yl]-2-methanesulfonyl-acetamide]	12
CC(=O)Nc1cccc(-c2cc3sc(C(C(=O)NCC(=O)NC4CC4)S(C)(=O)=O)nc3cc2F)c1 (stereo not shown) [Example 116, N-[(cyclopropyl-carbamoyl)methyl]-2-[6-(3-acetamidophenyl)-5-fluoro-1,3-benzothiazol-2-yl]-2-methanesulfonyl-acetamide]	17
COC(=O)Nc1cccc(-c2cc3sc(C(C(=O)NCC(=O)NC4CC4)S(C)(=O)=O)nc3cc2F)c1 (stereo not shown) [Example 117, methyl N-{3-[2-({[(cyclopropyl-carbamoyl)methyl]carbamoyl} (methanesulfonyl)methyl)-5-fluoro-1,3-benzothiazol-6-yl]phenyl} carbamate]	4
COC(=O)Nc1ccc(-c2cc3sc(C(C(=O)NCC(=O)NC4CC4)S(C)(=O)=O)nc3cc2F)cc1F (stereo not shown) [Example 118, methyl N-{4-[2-({[(cyclopropyl-carbamoyl)methyl]carbamoyl} (methanesulfonyl)methyl)-5-fluoro-1,3-benzothiazol-6-yl]-2-fluorophenyl} carbamate]	11
